Assay [1] relates to Serratia marcescens specific protease. Put plainly: Biosensor: target peptide bound to Cell Debris Remover, exposed to Serratia marcescens extract. It counts as biochemical. An excerpt:
An example of a biosensor for the detection of a Serratia marcescens (S. marcescens) specific protease, and therefore, for the detection of Serratia marcescens now follows. The Serratia marcescens specific target peptide substrate was bound to a surface with a weak positive charge, such as fibrous cellulose lightly substituted with DEAE (Cell Debris Remover, Whatman, Inc.).

Assay [2] shares this test system. Kind of assay: Serratia protease FRET assay, S. marcescens culture. It counts as biochemical. An excerpt:
A Serratia marcescens specific protease was identified based on a homology search using the sequence of a known sspB protease found in the Staphylococcus species. This protease has homology to the cysteine protease precursor (sspB) protein of Staphylococcus aureus. The corresponding Serratia protease has not been previously characterized. To test for the presence of the specific protease in a bacterial culture, a short target peptide was designed. This target peptide was derived from a polypeptide substrate previously shown to be cleaved by S. aureus sspB (Chan and Foster, J. Bacteriology 180:6232-6241, 1998). This peptide was capped by a fluorescent dye molecule on one end and by an associated chromophore molecule on the other end. If the absorption band of the chromophore has sufficient overlap with the absorbance band associated with the fluorescence of the dye molecule, the observed fluorescence will be quenched. This phenomenon is known as fluorescence resonance energy transfer (FRET) and can be used to determine the distance between the FRET donor and acceptor molecules. Upon cleavage of the peptide the fluorescent indicator is released from the proximity of the quencher and the fluorescence increase is measured. Thus, the presence or absence of a protease that targets the peptide in the sample can be determined by detecting fluorescence emitted by the cleaved peptide. […]

Assay [3] has as its system Staphylococcus aureus, Listeria monocytogenes, Pseudomonas aeruginosa, Enterococcus faecalis, Streptococcus salivarius, Escherichia coli cultures. Put plainly: Serratia protease FRET assay, other bacterial pathogen samples. In kind it is biochemical. As to conditions: other bacterial samples vs water control; same conditions. The protocol:
The specificity of the protease for Serratia marcescens is was determined by detecting cleavage of a target polypeptide, using FRET, by the protease in a number of different bacterial pathogen samples. The bacterial pathogen samples used in this study were all taken from overnight cultures grown in brain heart […] (BHI) media at 37° C., as described herein. The bacterial pathogens chosen for this study were: Staphylococcus aureus, Listeria monocytogenes, Pseudomonas aeruginosa, Enterococcus faecalis, Streptococcus salivarius, Serratia marcescens, and Escherichia coli. The target peptide substrate used to test for the Serratia marcescens specific protease was as follows: Dabsyl-NEAIQEDQVQYE-Edans (SEQ ID NO: 2), and was prepared using standard methods known to one skilled in the art. A substrate solution containing 1 mg/mL to 5 mg/mL of target peptide substrate in 1:1 water/dimethylsulfoxide (DMSO) was prepared. The reaction buffer used was 20 mM Tris (pH 7.5) with 200 mM NaCl. […] The narrow band filters in the fluorimeter were centered at 305 nm for excitation and 485 nm for fluorescence emission readings. The samples were incubated at 37° C. and the fluorescence of each sample was measured at time points taken every 10 minutes. […]

Another assay has as its system S. epidermidis. Put plainly: Indolyl ester glass microfiber filter sensor, S. epidermidis. As to conditions: substrates bound to glass microfiber filter; FIG. 17B. It counts as biochemical, Staphylococcus epidermidis. An excerpt: Hydrophobic interactions make use of the non-ionic packing that occurs in a polar solvent such as water and such interactions can be used in the production of biosensors for detection of pathogens. The substrates 5-bromo-4-chloro-3indolyl butyrate and 5-bromo-4-chloro-3indolyl caprylate can be spotted onto a glass microfiber filter to make a sensor. Upon spotting the filter with a small amount of Staphylococcus (aureus or epidermidis) culture medium the color of the filter will turn blue in approximately 15 minutes.

In the next assay the test system is S. pyogenes. Put plainly: Indolyl ester glass microfiber filter sensor, S. pyogenes. In kind it is biochemical, Streptococcus pyogenes. As to conditions: substrates bound to glass microfiber filter; FIG. 17B.
For assay [4], the system named is beta-galactosidase (other bacterial supernatants of Example 2). Put plainly: Beta-galactosidase assay, other species. In kind it is biochemical. As to conditions: 37° C. How it is done: (§1) A culture of each of the following bacterial species was grown to saturation in Brain Heart Infusion (BHI) broth at 37° C. with vigorous shaking (˜200 rpm), using methods that are standard in the art: Staphylococcus aureus; Staphylococcus epidermidis; Serratia marcescens; Streptococcus salivarius; Escherichia coli; Pseudomonas aeruginosa; and Enterococcus faecalis. After overnight growth (to saturation), a 1 mL sample of each culture was obtained, and the cells were removed from the culture supernatant by centrifugation at 12,000×g for 5 minutes. The remaining culture supernatants were stored on ice until required (less than one hour). The bacteria were assayed for the presence or absence of specific enzymes as described below. Alternatively, the bacterial cells are not separated from the culture supernatant, but rather, the assay is carried out on a sample containing the cells still in suspension in their culture broth.
(§2) To determine the presence or absence of bacteria in a sample, mid-log phase bacterial supernatants were obtained as described in Example 2. A substrate solution containing the labeled synthetic substrate ortho-nitrophenyl-b-D-galactopyranoside (ONPG) dissolved in 50% DMSO to a concentration of 20 mM was prepared. […] The samples were incubated at 37° C. and absorbance at 420 nm was measured hourly.

Assay [5] concerns beta-galactosidase (Streptococcus salivarius). Put plainly: Beta-galactosidase assay, S. salivarius supernatant. It counts as biochemical. As to conditions: 37° C. How it is done: as §1, §2
A further assay deals with lipase from S. aureus. Put plainly: Lipase assay, S. aureus culture supernatant. To be noted: 20 mM Tris (pH 8.3) with 1 mM ZnSO4, 20% methanol, 20% DMSO, or 10 mM Triton X-100 vs control. In kind it is biochemical, Staphylococcus aureus. The protocol:
as §1
To test for the presence or absence of lipases secreted by bacteria, the lipase substrate p-nitrophenyl caprate, obtained from Sigma (Catalog No.: N-0252). This lipase substrate consists of capric acid, a ten-carbon lipid molecule, esterified with the dye para nitrophenol (detectable label) as described above. The substrate was dissolved in isopropyl alcohol at a concentration of 8 mM (2.35 mg/mL). A reaction buffer containing 20 mM Tris (pH 8.5) was also prepared.
To perform the lipase assay, 80 μL of reaction buffer, 10 μL of culture supernatant from each bacteria species described in Example 2, and 10 μL of assay substrate were added to a well of a 96-well microplate. Each bacterial species was assayed individually, and the assays were performed in triplicate. The 96-well plate was incubated at 37° C. for 60 minutes. At 5 minute intervals during the incubation period, absorbance at 415 nm, indicating modification of the enzyme by a lipase secreted by the cells, was automatically measured using a BioRad Benchmark Microplate reader.
However, it is known that bacterial lipases do show strong substrate specificity with regard to the chain length of the fatty acid they hydrolyze (Van Kampen et al., BBA, 1544: 229, 2001) and to the location in a lipid layer. The degree that the environment of the substrate affects the efficiency of hydrolysis depends on the particular enzyme. To test this for the lipase from S. aureus, the above-described lipase assay was performed in the presence of several detergent and solvent additives. The reaction buffer consisted of 20 mM Tris (pH 8.3) with 1 mM ZnSO4 added, plus either nothing additional (control), 20% methanol, 20% DMSO, or 10 mM Triton X-100.

In assay [6] the test system is autolysins (Enterococcus faecalis). Put plainly: Autolysin assay, E. faecalis supernatant. It counts as biochemical. As to conditions: 20° C., 7 hours. The protocol: as §1, with “Alternatively, the bacterial cells are not separated from the culture supernatant, but rather, the assay is carried out on a sample containing the cells still in suspension in their culture broth.” left out
(§3) To test for the presence of autolysins in bacterial cell culture supernatants, the synthetic autolysin substrate p-nitrophenyl-N-acetyl-b-D-glucosaminide (PNP-AGA), a substrate containing a dye that is detected at […] when the substrate is modified, was dissolved in 50% DMSO to a final concentration of 20 mM to form a substrate solution. Modification of this substrate can be detected by measuring the change in absorbance at 405 nm. […] The progress of modification of the labeled substrate was monitored by absorbance at 405 nm.

The subject of assay [7] is other bacterial culture supernatants of Example 2. Kind of assay: Autolysin assay, other culture supernatants. In kind it is biochemical. To be noted: other culture supernatants vs water control; 20° C., 7 hours. The protocol:
as §1, with “Alternatively, the bacterial cells are not separated from the culture supernatant, but rather, the assay is carried out on a sample containing the cells still in suspension in their culture broth.” left out
as §3

*: point of attachment. Dabsyl = label, CN(C)c1ccc(/N=N/c2ccc(S(=O)(=O)*)cc2)cc1; EDANS = O=S(=O)(O)c1cccc2c(NCCN*)cccc12

For the compound “Dabsyl-NEAIQEDQVQYE-Edans (Dabsyl-NEAIQEDQVQYE-{EDANS}; SMILES CC[C@H](C)[C@H](NC(=O)[C@H](C)NC(=O)[C@H](CCC(=O)O)NC(=O)[C@H](CC(N)=O)NS(=O)(=O)c1ccc(/N=N/c2ccc(N(C)C)cc2)cc1)C(=O)N[C@@H](CCC(N)=O)C(=O)N[C@@H](CCC(=O)O)C(=O)N[C@@H](CC(=O)O)C(=O)N[C@@H](CCC(N)=O)C(=O)N[C@H](C(=O)N[C@@H](CCC(N)=O)C(=O)N[C@@H](Cc1ccc(O)cc1)C(=O)N[C@@H](CCC(=O)O)C(=O)NCCNc1cccc2c(S(=O)(=O)O)cccc12)C(C)C) [target peptide substrate used to test for the Serratia marcescens specific protease]”, in [1], the fluorescence of biosensor result is given as “fluorescence was readily detected”. Besides, the “cleavage of target peptide substrate (relative fluorescence intensity over time)” value in assay [2] (S. marcescens overnight culture in BHI, 20 mM Tris (pH 7.5) with 200 mM NaCl, 37° C., emission 485 nm) is on record as “reacted with the substrate, giving rise to an increase in fluorescence intensity”; in [3], “None of the other bacterial samples, including the Staphylococcus aureus sample, were distinguishable from the control”.
`CCCCCCCC(=O)Oc1c[nH]c2ccc(Br)c(Cl)c12` [5-bromo-4-chloro-3indolyl caprylate]: the “detection on filter sensor (dark spot)” value in the assay with S. epidermidis was “dark spot corresponding to S. epidermidis indicates detection”. In the assay on S. pyogenes, the “detection on filter sensor” value is “did not detect S. pyogenes”.
With `O=[N+]([O-])c1ccccc1O[C@@H]1O[C@H](CO)[C@H](O)[C@H](O)[C@H]1O` [ONPG, ortho-nitrophenyl-b-D-galactopyranoside], the “reaction with substrate (absorbance at 420 nm)” value is “other species did not” in assay [4] and “reacted with the substrate” in assay [5].
As to `CO` [methanol], the “effect of additive on hydrolysis rate of p-nitrophenyl caprate” value (from here on “effect … of p-nitrophenyl caprate”) in the assay on lipase from S. aureus is given as “hydrolysis rate was found to increase”.
For `O=C(O)CN(CCN(CC(=O)O)CC(=O)O)CC(=O)O` [EDTA, ethylenediaminetetraacetic acid], in assay [2] (One mM EDTA added to 20 mM Tris (pH 7.5) with 200 mM NaCl, Serratia culture), the “effect of EDTA on protease activity (relative fluorescence of the target peptide)” value was “No reduction in activity”.
`C[S+](C)[O-]` [DMSO]: in the assay on lipase from S. aureus, the “effect … of p-nitrophenyl caprate” value was “hydrolysis rate was found to increase”.
For the compound Triton X-100, the “effect … of p-nitrophenyl caprate” value in the assay on lipase from S. aureus is reported as “hydrolysis rate was found to increase”.
Regarding `CCCC(=O)Oc1c[nH]c2ccc(Br)c(Cl)c12` [5-bromo-4-chloro-3indolyl butyrate], in the assay on S. epidermidis, the “detection on filter sensor (dark spot)” value is reported as “dark spot corresponding to S. epidermidis indicates detection”. The “detection on filter sensor” value in the assay on S. pyogenes is given as “did not detect S. pyogenes”.
Turning to `CC(=O)N[C@H]1[C@H](Oc2ccc([N+](=O)[O-])cc2)O[C@H](CO)[C@@H](O)[C@@H]1O` [PNP-AGA, p-nitrophenyl-N-acetyl-b-D-glucosaminide], the “modification of substrate (change in absorbance at 405 nm)” value in [6] is “reacted with the substrate, giving rise to a color change”; in assay [7], “None of the other culture supernatants were distinguishable from the water control”.

These data come from US9017963B2, “Method for detecting microorganisms” (Woundchek Laboratories (US), Inc., priority 2002, dated 2015).
